Results as given in patent publication US20110282056A1, “PROTEIN KINASE INHIBITORS AND USE THEREOF” (priority 2008, published 2011).
pIC50: −log10 of the molar value.

How the values were obtained:
Format in all cases: biochemical
[1] = target: T1, VEGFR3 (Homo sapiens, UniProt P35916); experiment: VEGFR3 enzyme activity assay (Caliper LC3000 mobility shift); settings: 400 uM ATP (Km), 0.4 nM VEGFR3, 90 minutes at RT
T1 construct: purchased Millpore Corp. (Millipore) 14-681
Experimental: (§1) Enzyme activity for VEGFR3, VEGFR2 and Flt3 were measured on the Caliper Life Sciences LC3000 (Hopkinton, Mass.). The system utilizes the principle of electroosmotic flow to separate and quantify the amount of phosphorylated-Fluorescein-labelled-peptide (product) from unphosphorylated-Fluorescein-labelled peptide (substrate). The amount of product and substrate are determined by measuring the peak heights from the electropherogram. The enzyme activity is then quantified by dividing the amount of product by the sum of the product and substrate. The inhibitory activity of a sample is measured by comparing the enzyme activity in the presence of sample versus the enzyme activity in the presence of dimethylsufoxide (DMSO). Specific assay conditions for each enzyme are listed below:
(§2) VEGFR3 assay: The peptide substrate at 1 uM (FITC-KKKKEEIYFFF-CONH2; synthesized at Tufts University, Boston, Mass.) was incubated with 400 uM of ATP, corresponding to the Michaelis-Menten (Km) constant of the enzyme/substrate reaction, and 0.4 nM of VEGFR3 (Millpore Corp., Cat. No. 14-681) for 90 minutes at RT. After 90 minutes, the reaction was stopped by the addition of 10 mM EDTA. The substrate and product were then separated on the LC3000.

[2] = target: T2, VEGFR2 (Homo sapiens, UniProt P35968); experiment: VEGFR2 enzyme activity assay (Caliper LC3000 mobility shift); settings: 160 uM ATP (Km), 1 nM VEGFR2, 90 minutes at RT
T2 construct: purchased BPS Bioscience; San Diego, Calif; 40301
Experimental: as §1
as §2, with “VEGFR2” for “VEGFR3”, “(5-FL-EEPLYWSFPAKKK-CONH2;” for “(FITC-KKKKEEIYFFF-CONH2;”, “160” for “400”, “1” for “0.4”, “VEGFR2 (BPS Bioscience; San Diego, Calif.;” for “VEGFR3 (Millpore Corp.,”, “40301)” for “14-681)”

[3] = target: T3, Flt3 (Homo sapiens, UniProt P36888); experiment: Flt3 enzyme activity assay (Caliper LC3000 mobility shift); settings: 350 uM ATP (Km), 3 nM Flt3, 90 minutes at RT
T3 construct: purchased BPS Bioscience; San Diego, Calif; 40225
T3 sequence (P36888 27-993): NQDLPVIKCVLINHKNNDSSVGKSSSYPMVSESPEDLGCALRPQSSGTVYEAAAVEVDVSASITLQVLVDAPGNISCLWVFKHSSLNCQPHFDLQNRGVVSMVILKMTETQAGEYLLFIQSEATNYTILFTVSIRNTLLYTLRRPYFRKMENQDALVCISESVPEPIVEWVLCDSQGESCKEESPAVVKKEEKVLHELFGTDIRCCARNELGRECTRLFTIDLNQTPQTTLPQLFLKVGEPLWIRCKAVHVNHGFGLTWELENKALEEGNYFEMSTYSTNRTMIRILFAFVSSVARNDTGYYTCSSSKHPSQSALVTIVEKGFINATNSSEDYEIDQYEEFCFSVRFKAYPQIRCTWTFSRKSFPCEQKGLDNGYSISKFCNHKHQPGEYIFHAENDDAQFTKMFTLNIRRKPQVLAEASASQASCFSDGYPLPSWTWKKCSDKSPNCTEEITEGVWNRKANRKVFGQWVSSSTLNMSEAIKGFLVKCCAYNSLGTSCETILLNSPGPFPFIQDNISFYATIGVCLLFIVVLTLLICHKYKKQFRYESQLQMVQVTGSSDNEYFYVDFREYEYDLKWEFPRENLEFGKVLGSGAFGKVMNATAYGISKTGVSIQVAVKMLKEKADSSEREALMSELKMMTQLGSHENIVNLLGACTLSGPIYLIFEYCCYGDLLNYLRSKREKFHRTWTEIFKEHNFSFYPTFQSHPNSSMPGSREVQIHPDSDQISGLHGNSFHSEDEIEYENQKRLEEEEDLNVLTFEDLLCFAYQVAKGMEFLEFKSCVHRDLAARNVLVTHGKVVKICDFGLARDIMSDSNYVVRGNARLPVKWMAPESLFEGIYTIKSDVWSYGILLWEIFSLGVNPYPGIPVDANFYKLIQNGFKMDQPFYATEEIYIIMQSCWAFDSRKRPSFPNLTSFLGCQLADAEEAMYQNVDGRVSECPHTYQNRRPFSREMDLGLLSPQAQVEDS
Experimental: as §1
as §2, with “Flt3” for “VEGFR3”, “(FITC-AHA-UEAIYAAPFAKKK-CONH2;” for “(FITC-KKKKEEIYFFF-CONH2;”, “350” for “400”, “3” for “0.4”, “Flt3 (BPS Bioscience; San Diego, Calif.;” for “VEGFR3 (Millpore Corp.,”, “40225)” for “14-681)”

Measured: pIC50

T2 sequence (P35968 20-1356): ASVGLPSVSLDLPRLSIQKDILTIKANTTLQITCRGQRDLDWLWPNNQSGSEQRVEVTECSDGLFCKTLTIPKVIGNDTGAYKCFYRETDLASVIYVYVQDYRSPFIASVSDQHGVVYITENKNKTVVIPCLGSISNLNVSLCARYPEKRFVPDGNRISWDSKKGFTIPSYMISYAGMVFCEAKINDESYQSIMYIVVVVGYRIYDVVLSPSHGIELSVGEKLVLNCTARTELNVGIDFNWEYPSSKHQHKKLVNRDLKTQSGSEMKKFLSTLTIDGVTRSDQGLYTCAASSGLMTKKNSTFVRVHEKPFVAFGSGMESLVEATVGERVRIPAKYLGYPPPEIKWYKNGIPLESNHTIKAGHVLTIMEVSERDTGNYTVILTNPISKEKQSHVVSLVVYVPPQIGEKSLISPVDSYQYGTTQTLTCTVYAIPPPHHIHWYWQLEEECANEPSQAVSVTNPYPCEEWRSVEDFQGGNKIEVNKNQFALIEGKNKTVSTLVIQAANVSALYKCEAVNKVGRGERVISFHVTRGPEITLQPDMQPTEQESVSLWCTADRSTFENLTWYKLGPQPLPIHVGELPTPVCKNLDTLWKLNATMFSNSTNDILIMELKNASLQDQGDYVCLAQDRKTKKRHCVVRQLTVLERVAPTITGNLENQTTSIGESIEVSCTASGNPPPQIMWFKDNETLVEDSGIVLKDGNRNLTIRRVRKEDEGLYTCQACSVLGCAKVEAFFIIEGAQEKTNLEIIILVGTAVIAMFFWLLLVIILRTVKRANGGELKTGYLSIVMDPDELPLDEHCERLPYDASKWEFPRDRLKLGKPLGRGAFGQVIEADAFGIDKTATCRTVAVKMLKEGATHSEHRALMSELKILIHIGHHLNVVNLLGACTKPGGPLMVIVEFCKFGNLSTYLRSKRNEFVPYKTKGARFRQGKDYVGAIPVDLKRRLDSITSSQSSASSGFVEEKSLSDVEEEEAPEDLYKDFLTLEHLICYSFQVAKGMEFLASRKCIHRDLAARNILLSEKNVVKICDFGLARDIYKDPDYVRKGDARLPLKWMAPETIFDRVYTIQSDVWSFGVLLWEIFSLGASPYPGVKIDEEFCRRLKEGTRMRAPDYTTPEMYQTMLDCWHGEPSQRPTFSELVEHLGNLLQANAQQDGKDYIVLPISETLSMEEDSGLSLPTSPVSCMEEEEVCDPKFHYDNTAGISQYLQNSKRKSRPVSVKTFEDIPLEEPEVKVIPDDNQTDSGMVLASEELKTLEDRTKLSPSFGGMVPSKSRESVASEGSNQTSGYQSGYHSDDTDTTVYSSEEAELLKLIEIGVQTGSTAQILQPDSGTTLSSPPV
T1 sequence (P35916 25-1363): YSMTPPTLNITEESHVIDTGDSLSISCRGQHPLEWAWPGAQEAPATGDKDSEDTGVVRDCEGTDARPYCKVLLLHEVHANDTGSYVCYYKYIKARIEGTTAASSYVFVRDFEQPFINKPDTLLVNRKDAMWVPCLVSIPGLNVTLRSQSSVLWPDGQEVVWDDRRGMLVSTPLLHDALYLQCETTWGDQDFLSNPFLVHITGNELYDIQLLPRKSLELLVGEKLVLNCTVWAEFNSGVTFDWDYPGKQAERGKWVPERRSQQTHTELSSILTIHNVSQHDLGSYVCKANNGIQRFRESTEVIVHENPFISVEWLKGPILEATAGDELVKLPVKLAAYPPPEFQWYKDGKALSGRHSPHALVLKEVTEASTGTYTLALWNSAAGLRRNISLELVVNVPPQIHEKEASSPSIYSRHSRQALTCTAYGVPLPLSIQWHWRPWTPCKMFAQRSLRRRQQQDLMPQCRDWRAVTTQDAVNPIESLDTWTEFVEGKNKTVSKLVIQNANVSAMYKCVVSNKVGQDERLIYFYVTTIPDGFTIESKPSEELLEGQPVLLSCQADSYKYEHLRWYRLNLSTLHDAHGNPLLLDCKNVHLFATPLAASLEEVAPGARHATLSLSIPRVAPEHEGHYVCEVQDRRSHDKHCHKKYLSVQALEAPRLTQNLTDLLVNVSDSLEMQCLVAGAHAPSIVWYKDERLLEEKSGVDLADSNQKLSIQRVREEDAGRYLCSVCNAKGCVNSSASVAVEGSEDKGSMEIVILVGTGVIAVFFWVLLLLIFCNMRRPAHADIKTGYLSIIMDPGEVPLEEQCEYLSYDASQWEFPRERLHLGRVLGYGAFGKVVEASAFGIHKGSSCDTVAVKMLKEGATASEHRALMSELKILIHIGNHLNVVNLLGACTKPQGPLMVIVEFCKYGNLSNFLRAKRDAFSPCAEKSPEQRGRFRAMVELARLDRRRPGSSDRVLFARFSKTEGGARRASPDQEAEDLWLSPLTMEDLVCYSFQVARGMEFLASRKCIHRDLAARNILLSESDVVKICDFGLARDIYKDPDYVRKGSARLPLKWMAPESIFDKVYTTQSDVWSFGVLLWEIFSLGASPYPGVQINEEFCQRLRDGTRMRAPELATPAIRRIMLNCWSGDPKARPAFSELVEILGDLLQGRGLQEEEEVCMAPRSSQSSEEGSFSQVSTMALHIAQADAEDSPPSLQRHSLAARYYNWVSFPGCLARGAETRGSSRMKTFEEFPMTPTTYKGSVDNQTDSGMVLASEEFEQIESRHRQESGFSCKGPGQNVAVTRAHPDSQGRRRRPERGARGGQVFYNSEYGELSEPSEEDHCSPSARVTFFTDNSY

N#Cc1ccc(C#Cc2ccnc3[nH]ccc23)cc1 [compound 100]
< 6.00: all assays above

O=C(NCc1ccccc1C#Cc1ccnc2[nH]ccc12)Nc1ccccc1 [compound 113]
< 6.00: all assays above

C#Cc1ccnc2[nH]ccc12 [compound 96]
< 6.00: all assays above

COc1ccc(C#Cc2ccnc3[nH]ccc23)cc1 [compound 89]
< 6.00: all assays above
